The values that follow come from US6893846B2, “Primers for use in detecting beta-lactamases” (priority 1998, dated 2005).

One assay concerns K. pneumoniae. Briefly: Agar dilution MIC, South African isolates. Type of assay: cell-based, Klebsiella pneumoniae. The following applies: tzp with tazobactam 4 μg/ml. An excerpt:
(§1) The strains were provided in response to a request for all strains of Enterobacteriaceae, lacking inducible beta-lactamases, that were intermediate or resistant to cefotaxime or ceftazidime. […]
(Agar dilution tests growth on a series of plates holding different concentrations.)

For assay [1], the system named is K. pneumoniae 225. Briefly: Three-dimensional test (enzymatic inactivation of antibiotics). The following applies: beta-lactamase-mediated hydrolysis by K. pneumoniae 225, lawn E. coli ATCC 25922.
For assay [2], the target named is single beta-lactamase in E. coli cell extracts (Escherichia coli, UniProt P62593, E102K/R162S). Briefly: Spectrophotometric hydrolysis assay on crude beta-lactamase extracts. The following applies: E. coli Pit 64 extract, beta-lactamase pI 5.6; 100 μM substrate.
The target of assay [3] is beta-lactamases in sonic extracts of K. pneumoniae (Escherichia coli, UniProt P62593). The following applies: 0.75 μg/ml cefotaxime.
Assay [4] addresses beta-lactamases in sonic extracts of K. pneumoniae (Klebsiella pneumoniae, UniProt P0AD64, E235K/G234S). The following applies: Kpn2, beta-lactamase pI 8.2 (SHV-5); 0.75 μg/ml cefotaxime.
Assay [5] concerns the target beta-lactamases in sonic extracts of K. pneumoniae (Klebsiella pneumoniae, UniProt P0AD64). The following applies: Kpn1, beta-lactamase pI 7.6 (SHV-1); 0.75 μg/ml cefotaxime.
The test system of assay [6] is beta-lactamases in sonic extracts of K. pneumoniae. The following applies: 0.75 μg/ml cefotaxime.
In assay [7] the test system is E. coli C600 transconjugant. The following applies: disk diffusion, Tc = transconjugate E. coli C600. Background: A growth-free zone around the sample is the usual read-out of agar diffusion tests.
Assay [8] concerns K. pneumoniae 225. Briefly: NCCLS microdilution susceptibility test. Type of assay: cell-based, Klebsiella pneumoniae. The following applies: Klebsiella pneumoniae, 225. In general terms: Dilution methods test growth across graded concentrations, often in twofold steps.
The test system of assay [9] is K. pneumoniae 225. Briefly: NCCLS disk diffusion assay. Type of assay: cell-based, Klebsiella pneumoniae. The following applies: disk diffusion, Kleb 225.
The subject of a further assay is E. coli. Briefly: Agar dilution MIC, South African isolates. Type of assay: cell-based, Escherichia coli. The following applies: tzp with tazobactam 4 μg/ml.
From the text: as §1

The structures appear in SMILES notation. ≈ marks a conversion by molar mass, not a printed value. Where two headings read alike, the source gives them in different places.

`CO/N=C(\C(=O)N[C@@H]1C(=O)N2C(C(=O)O)=C(COC(C)=O)CS[C@H]12)c1csc(N)n1` [cefotaxime]: the MIC range is 0.25 to 1 µg/mL with K. pneumoniae (resistance phenotype Kpn1, 8 strains); 4 to 64 µg/mL with K. pneumoniae (resistance phenotype Kpn2, 28 strains); 4 µg/mL in the assay on K. pneumoniae (resistance phenotype Kpn3 (K. pneumoniae Pit 68), 1 strain, listed as ctx); 1 µg/mL with E. coli (resistance phenotype Ec1, 3 strains); 16 µg/mL in the assay on E. coli (resistance phenotype Ec2, 1 strain). The three dimensional test entry in the assay on K. pneumoniae 225 [1] is “positive”. Moreover, the Hydrolysis in [2] is reported as 1 nmol of substrate hydrolyzed/m. For the same molecule, the ctx hydrolysis entry is recorded as “No” in assay [3] (Kpn2, beta-lactamase pI 5.4 (TEM-1)); “No” in [3] (Kpn3, beta-lactamase pI 5.4 (TEM-1)); “Yes” in [4]; “No” in assay [5]; “Yes” in [6] (Kpn1, beta-lactamase pI 5.6 (TEM-10 or 26)); “Yes” in [6] (Kpn2, beta-lactamase pI 7.6 (SHV-2 or 8)). Moreover, in assay [6] (Kpn3, beta-lactamase pI 8.0 (AmpC)), the ctx hydrolysis result was “Yes”. The “Zone Size” value in assay [7] is 12 mm; in the assay on K. pneumoniae 225 [9], 15 mm. In the assay on K. pneumoniae 225 [8], the lowest concentration to inhibit growth (MIC) was 16 µg/mL (≈ 35.1 µM).
